Measured values published in US8735446B2, “Vanillin acetals and sensory stimulant composition containing the same” (Takasago International Corporation, priority 2005, dated 2014).

Legend:
ten expert panelists = test: Sensory Evaluation 1: oral evaluation of 10 ppm aqueous solutions; type: in vivo, human; set-up: key to Instantaneous sensation: ⊚: very fast; ◯: fast; Δ: is somewhat slow; x: slow; conditions: for Instantaneous sensation / Intensity: oral evaluation, 10 ppm aqueous solution, warming sensation and pungent taste, average of ten panelists; for Intensity: scale 5 very strong, 4 strong, 3 weak, 2 very weak, 1 not able to feel
Protocol: Compound A and Compound C obtained in Example 1 and Example 3, respectively, were subjected to oral evaluation using 10 ppm aqueous solutions of them by ten expert panelists having 5 or more year experience, and an instantaneous sensation and an intensity of warming sensation and pungent taste were evaluated on the basis of the following evaluation criteria. On the sensory evaluation, 4-(l-methoxymethyl)-2-(3′-methoxy-4′-hydroxyphenyl)-1,3-dioxolan (Comparative compound A: the compound described in JP-A-8-225564) was used as a comparative compound. The evaluation results in the table show the average value of ten panelists.

skin = test: warm sensation and stimulating effect on the skin; type: in vivo, human

COCC1COC(c2ccc(O)c(OC)c2)O1 (stereo not drawn) [Comparative compound A, 4-(l-methoxymethyl)-2-(3′-methoxy-4′-hydroxyphenyl)-1,3-dioxolan, reference compound]
pungent and warming effect in the mouth (ten expert panelists): strong pungent and warming effect in the mouth | Instantaneous sensation (ten expert panelists): Δ | Intensity (ten expert panelists): 2.8 | warm sensation and stimulating effect on the skin (skin): strong warm sensation and stimulating effect on the skin

CCCCOCC1COC(c2ccc(O)c(OC)c2)O1 (stereo not drawn) [Compound C, vanillin-1-butoxyglycerol acetal]
pungent and warming effect in the mouth (ten expert panelists): strong pungent and warming effect in the mouth | Instantaneous sensation (ten expert panelists): ⊚ | Intensity (ten expert panelists): 4.2 | warm sensation and stimulating effect on the skin (skin): strong warm sensation and stimulating effect on the skin

CCCCC1COC(c2ccc(O)c(OC)c2)O1 (stereo not drawn) [Compound A, vanillin-1,2-hexylene glycol acetal]
pungent and warming effect in the mouth (ten expert panelists): strong pungent and warming effect in the mouth | Instantaneous sensation (ten expert panelists): ⊚ | Intensity (ten expert panelists): 4.5 | warm sensation and stimulating effect on the skin (skin): strong warm sensation and stimulating effect on the skin
